Test results from patent publication US9056104B2, “Dynamic inhibitors of heat shock protein 90” (THE UNIVERSITY OF KANSAS, priority 2011, dated 2015).
Read-outs that look alike come from different tables or passages of the source. One block for each molecule: values may come before it.

Key:
[1] = tested on: SKBr3 (estrogen receptor negative, Her2 over-expressing breast cancer cells); test: Anti-proliferative activity against SKBr3 cells; type: cell-based; settings: for IC50: mean ± SD
Experimental: (§1) Once synthesized, the library of coumermycin A1 analogs containing the olefinic and saturated linkers, were evaluated for anti-proliferative activity against SKBr3 (estrogen receptor negative, Her2 over-expressing breast cancer cells), MCF-7 (estrogen receptor positive breast cancer cells), A549 (human lung adenocarcinoma epithelial), HT29 (Human colon adenocarcinoma grade II), and PC3mm2 (androgen receptor insensitive prostate cancer) cell lines. […] As shown, X is at the 6 position and Y is at the 8 position.

[2] = tested on: MCF-7 (estrogen receptor positive breast cancer cells); test: Anti-proliferative activity against MCF-7 cells; type: cell-based; settings: mean ± SD
Experimental: as §1

[3] = tested on: PC3mm2 (androgen receptor insensitive prostate cancer); test: Anti-proliferative activity against PC3mm2 cells; type: cell-based
Experimental: as §1, with “lines. The activities produced provide insight into the optimal distance between binding sites and provide rationale for subsequent analog design.” for “lines.”

[4] = tested on: A549 (human lung adenocarcinoma epithelial); test: Anti-proliferative activity against A549 cells; type: cell-based
Experimental: as §1, with “lines. The activities produced provide insight into the optimal distance between binding sites and provide rationale for subsequent analog design.” for “lines.”

[5] = tested on: HT29 (Human colon adenocarcinoma grade II); test: Anti-proliferative activity against HT29 cells; type: cell-based
Experimental: as §1, with “lines. The activities produced provide insight into the optimal distance between binding sites and provide rationale for subsequent analog design.” for “lines.”

[6] = tested on: HSP90-dependent client proteins (Her-2, Raf, Akt); test: Western blot analyses of HSP90 client protein degradation in MCF-7 breast cancer cells; type: cell-based; settings: MCF-7 lysates, 24 hour treatment, 5x and 1/2 of antiproliferative IC50; actin control
Experimental: Since actin is not dependent on HSP90 for its maturation, actin levels should remain constant after treatment with an HSP90 inhibitor and is therefore used as a control. […] L represents a concentration ½ of the anti-proliferative IC50 value while H represents a concentration 5 times greater than the anti-proliferative IC50 value. GDA (500 nM) represents a positive control, while DMSO (0), vehicle, serves as the negative control. […]

[7] = tested on: SKBr3, MCF-7, A549, HT29 and PC3mm2 cell lines; test: Anti-proliferative activity, cell lines not specified; type: cell-based; settings: versus Compounds 65-70
Experimental: as §1, with “lines. The activities produced provide insight into the optimal distance between binding sites and provide rationale for subsequent analog design.” for “lines.”

[8] = tested on: cancer cells; settings: cited from earlier work; for IC50: previously found, background, read-out: IC50 against cancer cells (anti-proliferative activity)
[9] = Table 2, read-out: Anti-Proliferation Activities of non-Noviosylated Olefin Dimers, SKBr3
[10] = Table 2, read-out: Anti-Proliferation Activities of non-Noviosylated Olefin Dimers, MCF7
[11] = Table 2, read-out: Anti-Proliferation Activities of non-Noviosylated Olefin Dimers, PC3mm2
[12] = Table 2, read-out: Anti-Proliferation Activities of non-Noviosylated Olefin Dimers, A549
[13] = Table 3, read-out: Anti-Proliferation Activities of Saturated Linker Dimers, SKBr3
[14] = Table 3, read-out: Anti-Proliferation Activities of Saturated Linker Dimers, MCF-7
[15] = Table 3, read-out: Anti-Proliferation Activities of Saturated Linker Dimers, PC3mm2
[16] = Table 3, read-out: Anti-Proliferation Activities of Saturated Linker Dimers, A549
[17] = Table 3, read-out: Anti-Proliferation Activities of Saturated Linker Dimers, HT29
[18] = Table 4, read-out: Anti-Proliferation Activities of Biaryl Dimers, SKBr3
[19] = Table 4, read-out: Anti-Proliferation Activities of Biaryl Dimers, MCF-7

IC50 [1, 9]: 0.51 ± 0.06 µM
IC50 [2, 10]: 0.73 ± 0.1 µM
Structure (SMILES): Cc1c(OC2CCN(C)CC2)ccc2cc(NC(=O)CCCC/C=C/CCCCC(=O)Nc3cc4ccc(OC5CCN(C)CC5)c(C)c4oc3=O)c(=O)oc12 [Compound 35]

IC50 [1, 9]: 0.46 ± 0.02 µM
IC50 [2, 10]: 0.84 µM
IC50 [3, 11]: 15.2 µM
IC50 [4, 12]: 19.4 µM
IC50 ([5]; Table 2, read-out: Anti-Proliferation Activities of non-Noviosylated Olefin Dimers, HT29): 12.2 µM
Structure (SMILES): Cc1c(OCCCN(C)C)ccc2cc(NC(=O)C/C=C/CC(=O)Nc3cc4ccc(OCCCN(C)C)c(C)c4oc3=O)c(=O)oc12 [Compound 36]
degradation of HSP90 client proteins (Her-2, Raf, Akt), Western blot [6]: no activity against HSP90 client proteins

IC50 [1, 9]: > 100 µM
IC50 [2, 10]: 49.9 ± 2.6 µM
IC50 [3, 11]: 32.9 µM
IC50 [4, 12]: 77.6 µM
Structure (SMILES): Cc1c(OC2CCN(C)CC2)ccc2cc(NC(=O)CC/C=C\CCC(=O)Nc3cc4ccc(OC5CCN(C)CC5)c(C)c4oc3=O)c(=O)oc12 [Compound 38]

IC50 [1, 13]: 1.26 ± 0.2 µM
IC50 [2, 14]: 2.46 ± 0.4 µM
Structure (SMILES): Cc1c(OC2CCN(C)CC2)ccc2cc(NC(=O)CCCCC(=O)Nc3cc4ccc(OC5CCN(C)CC5)c(C)c4oc3=O)c(=O)oc12 [Compound 42]

IC50 [1, 13]: 1.19 ± 0.3 µM
IC50 [2, 14]: 2.82 ± 0.3 µM
IC50 [3, 15]: 13.8 µM
IC50 [4, 16]: 30.4 µM
IC50 [5, 17]: 26.3 µM
Structure (SMILES): Cc1c(OC2CCN(C)CC2)ccc2cc(NC(=O)CCCCCCC(=O)Nc3cc4ccc(OC5CCN(C)CC5)c(C)c4oc3=O)c(=O)oc12 [Compound 43]

IC50 [1, 13]: 2.84 ± 0.1 µM
IC50 [2, 14]: 3.68 ± 0.4 µM
IC50 [3, 15]: 10.2 µM
IC50 [4, 16]: 13.2 µM
IC50 [5, 17]: 3.9 µM
Structure (SMILES): Cc1c(OC2CCN(C)CC2)ccc2cc(NC(=O)CCCCCCCCC(=O)Nc3cc4ccc(OC5CCN(C)CC5)c(C)c4oc3=O)c(=O)oc12 [Compound 44]

IC50 [1, 18]: 0.86 ± 0.14 µM
IC50 [2, 19]: 1.26 ± 0.17 µM
Structure (SMILES): COC1C(O)C(O)C(Oc2ccc3cc(NC(=O)c4cccc(-c5cccc(C(=O)Nc6cc7ccc(OC8OC(C)(C)C(OC)C(O)C8O)c(C)c7oc6=O)c5)c4)c(=O)oc3c2C)OC1(C)C (stereo not drawn) [Compound 65]

IC50 [1, 18]: 28.5 ± 4.4 µM
IC50 [2, 19]: 38 ± 1.5 µM
Structure (SMILES): COc1cc(C(=O)Nc2cc3ccc(OC4OC(C)(C)C(OC)C(O)C4O)c(C)c3oc2=O)cc(-c2cc(C(=O)Nc3cc4ccc(OC5OC(C)(C)C(OC)C(O)C5O)c(C)c4oc3=O)ccc2OC)c1 (stereo not drawn) [Compound 67]

IC50 [1, 18]: 1.95 ± 0.4 µM
IC50 [2, 19]: 1.85 ± 0.52 µM
IC50 ([3]; Table 4, read-out: Anti-Proliferation Activities of Biaryl Dimers, PC3mm2): 12.5 µM
IC50 ([4]; Table 4, read-out: Anti-Proliferation Activities of Biaryl Dimers, A549): 28.9 µM
IC50 ([5]; Table 4, read-out: Anti-Proliferation Activities of Biaryl Dimers, HT29): 11.7 µM
Structure (SMILES): COc1cc(C(=O)Nc2cc3ccc(OC4OC(C)(C)C(OC)C(O)C4O)c(C)c3oc2=O)cc(-c2cc(OC)cc(C(=O)Nc3cc4ccc(OC5OC(C)(C)C(OC)C(O)C5O)c(C)c4oc3=O)c2)c1 (stereo not drawn) [Compound 68]

IC50 [1, 18]: 0.11 ± 0.05 µM
IC50 [2, 19]: 0.72 ± 0.21 µM
Structure (SMILES): COc1ccc(C(=O)Nc2cc3cc(OC)c(OC4OC(C)(C)C(OC)C(O)C4O)c(C)c3oc2=O)cc1-c1cc(C(=O)Nc2cc3cc(OC)c(OC4OC(C)(C)C(OC)C(O)C4O)c(C)c3oc2=O)ccc1OC (stereo not drawn) [Compound 69]
fold more active on SkBr3 cell lines than corresponding 8-Me and 8-OMe coumarin analogs (Compounds 66 and 68) ([1]; versus Compounds 66 and 68): 7-8 fold

IC50 ([1]; Table 5, read-out: Anti-Proliferation Activities Non-Noviosylated Biaryl Dimers, SKBr3): 11.8 ± 0.8 µM
IC50 ([2]; Table 5, read-out: Anti-Proliferation Activities Non-Noviosylated Biaryl Dimers, MCF-7): > 100 µM
Structure (SMILES): COc1ccc(C(=O)Nc2cc3ccc(OC(C)=O)c(C)c3oc2=O)cc1-c1cc(C(=O)Nc2cc3ccc(OC(C)=O)c(C)c3oc2=O)ccc1OC [Compound 73]
fold less active than the corresponding noviosylated coumarin-containing analogs (Compounds 65-70) [7]: ~10 fold

Structure (SMILES): CO[C@H]1[C@H](OC(=O)c2ccc(C)[nH]2)[C@H](O)[C@@H](Oc2ccc3c(O)c(NC(=O)c4c[nH]c(C(=O)Nc5c(O)c6ccc(O[C@H]7OC(C)(C)[C@@H](OC)[C@H](OC(=O)c8ccc(C)[nH]8)[C@@H]7O)c(C)c6oc5=O)c4C)c(=O)oc3c2C)OC1(C)C [coumermycin A1]
IC50 [8]: 70 µM
fold increase in anti-proliferative activity over novobiocin ([8]; relative to novobiocin): 10 fold

Structure (SMILES): CO[C@@H]1[C@@H](OC(N)=O)[C@@H](O)[C@H](Oc2ccc3c(O)c(NC(=O)c4ccc(O)c(CC=C(C)C)c4)c(=O)oc3c2C)OC1(C)C [novobiocin]
IC50 [8]: ~700 µM
